# According to patent US9586962B2, “Disubstituted octahydropyrrolo [3,4-C] pyrroles as orexin receptor modulators” (Janssen Pharmaceutica NV, priority 2011, dated 2017):
# Molecular target: human orexin 2 receptor (Homo sapiens (Human), UniProt O43614)
# Test: Human orexin 2 receptor Ca2+ mobilization assay (FLIPR, PFSK cells, orexin B 100 nM)
# Type: cell-based
# Settings: modified Cheng-Prusoff correction, read-out: OR 2 Kb
# Method: Human Orexin 2 Receptor Ca^2+ Mobilization Assay
# Cells were seeded on to 96-well Packard viewplates at a density of 50,000 cells/well and incubated overnight at 37° C., 5% CO2. The cells were dye-loaded with 4 μM Ca^2+ dye Fluo-3AM in serum-free DMEM/F-12 with 2.5 mM probenecid and incubated at 37° C., 5% CO2 for one hour. Cells were pre-incubated with compounds (diluted in DMEM/F-12) for 30 minutes before agonist (orexin B, 100 nM) stimulation. Ligand-induced Ca^2+ release was measured using a Fluorometric Imaging Plate Reader (FLIPR, Molecular Devices, Sunnyvale, Calif.). Functional responses were measured as peak fluorescence intensity minus basal. The concentration of agonist that produced a half-maximal response is represented by the EC50 value. Antagonistic potency values were converted to apparent pKB values using a modified Cheng-Prusoff correction. Apparent pKB=−log IC50/1+[conc agonist/EC50]. Data are expressed as mean±S.E.M, the designation of NT means not tested.
# Sequence of human orexin 2 receptor (O43614 whole entry): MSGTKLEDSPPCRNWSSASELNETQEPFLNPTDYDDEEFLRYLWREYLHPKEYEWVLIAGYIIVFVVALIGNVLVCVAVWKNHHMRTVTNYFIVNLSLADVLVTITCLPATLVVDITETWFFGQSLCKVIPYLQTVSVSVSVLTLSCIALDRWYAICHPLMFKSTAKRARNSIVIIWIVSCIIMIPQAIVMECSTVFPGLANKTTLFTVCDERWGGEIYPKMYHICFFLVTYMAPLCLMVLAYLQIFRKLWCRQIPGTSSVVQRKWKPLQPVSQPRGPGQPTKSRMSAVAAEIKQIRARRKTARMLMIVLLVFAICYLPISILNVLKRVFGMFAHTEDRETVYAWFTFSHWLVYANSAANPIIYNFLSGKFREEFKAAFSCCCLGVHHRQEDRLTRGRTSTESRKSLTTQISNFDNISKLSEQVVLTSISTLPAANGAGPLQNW
row,SMILES,Kb [nM]
1,"COc1cc(N2CC3CN(C(=O)c4c(F)cccc4-n4nccn4)CC3C2)nc(N(C)C)n1 (stereo not shown) [Example 1, 4-[5-{[2-Fluoro-6-(2H-1,2,3-triazol-2-yl)phenyl]carbonyl}hexahydropyrrolo[3,4-c]pyrrol-2(1H)-yl]-6-methoxy-N,N-dimethylpyrimidin-2-amine]",10
2,"CN(C)c1cc(N2CC3CN(C(=O)c4ccccc4-n4nccn4)CC3C2)nc(C(F)(F)F)n1 (stereo not shown) [Example 2, N,N-Dimethyl-6-[5-{[2-(2H-1,2,3-triazol-2-yl)phenyl]carbonyl}hexahydropyrrolo[3,4-c]pyrrol-2(1H)-yl]-2-(trifluoromethyl)pyrimidin-4-amine]",16
3,"CN(C)c1cc(N2CC3CN(C(=O)c4c(F)cccc4-n4nccn4)CC3C2)nc(C(F)(F)F)n1 (stereo not shown) [Example 3, 6-[5-{[2-Fluoro-6-(2H-1,2,3-triazol-2-yl)phenyl]carbonyl}hexahydropyrrolo[3,4-c]pyrrol-2(1H)-yl]-N,N-dimethyl-2-(trifluoromethyl)pyrimidin-4-amine]",14
4,"COc1cc(N2CC3CN(C(=O)c4cc(F)ccc4-n4nccn4)CC3C2)nc(N(C)C)n1 (stereo not shown) [Example 4, 4-[5-{[5-Fluoro-2-(2H-1,2,3-triazol-2-yl)phenyl]carbonyl}hexahydropyrrolo[3,4-c]pyrrol-2(1H)-yl]-6-methoxy-N,N-dimethylpyrimidin-2-amine]",32
5,"COc1cc(N2CC3CN(C(=O)c4ccccc4-n4nccn4)CC3C2)nc(N(C)C)n1 (stereo not shown) [Example 5, 4-Methoxy-N,N-dimethyl-6-[5-{[2-(2H-1,2,3-triazol-2-yl)phenyl]carbonyl}hexahydropyrrolo-[3,4-c]pyrrol-2(1H)-yl]pyrimidin-2-amine]",5
6,"CN(C)c1cc(N2CC3CN(C(=O)c4ccc(F)cc4-n4nccn4)CC3C2)nc(C(F)(F)F)n1 (stereo not shown) [Example 6, 6-[5-{[4-Fluoro-2-(2H-1,2,3-triazol-2-yl)phenyl]carbonyl}hexahydropyrrolo[3,4-c]pyrrol-2(1H)-yl]-N,N-dimethyl-2-(trifluoromethyl)pyrimidin-4-amine]",25
7,"COc1cc(N2CC3CN(C(=O)c4ccc(F)cc4-n4nccn4)CC3C2)nc(N(C)C)n1 (stereo not shown) [Example 7, 4-[5-{[4-Fluoro-2-(2H-1,2,3-triazol-2-yl)phenyl]carbonyl}hexahydropyrrolo[3,4-c]pyrrol-2(1H)-yl]-6-methoxy-N,N-dimethylpyrimidin-2-amine]",13
8,"CN(C)c1cc(N2CC3CN(C(=O)c4cc(F)ccc4-n4nccn4)CC3C2)nc(C(F)(F)F)n1 (stereo not shown) [Example 9, 6-[5-{[5-Fluoro-2-(2H-1,2,3-triazol-2-yl)phenyl]carbonyl}hexahydropyrrolo[3,4-c]pyrrol-2(1H)-yl]-N,N-dimethyl-2-(trifluoromethyl)pyrimidin-4-amine]",56
9,"Cc1cc(C)nc(N2CC3CN(C(=O)c4sccc4-c4ccccc4)CC3C2)n1 (stereo not shown) [Example 12, 2-(4,6-Dimethylpyrimidin-2-yl)-5-[(3-phenylthiophen-2-yl)carbonyl]octahydropyrrolo[3,4-c]pyrrole]",32
10,"Cc1cc(C)nc(N2CC3CN(C(=O)c4occc4-c4ccccc4)CC3C2)n1 (stereo not shown) [Example 13, 2-(4,6-Dimethylpyrimidin-2-yl)-5-[(3-phenylfuran-2-yl)carbonyl]octahydropyrrolo[3,4-c]pyrrole]",79
11,"Cc1cc(C)nc(N2CC3CN(C(=O)c4ccccc4-c4nnc[nH]4)CC3C2)n1 (stereo not shown) [Example 14, 2-(4,6-Dimethylpyrimidin-2-yl)-5-{[2-(1H-1,2,4-triazol-5-yl)phenyl]carbonyl}octahydro-pyrrolo[3,4-c]pyrrole]",9
12,"O=C(c1ccccc1-c1cccs1)N1CC2CN(c3cnc4ccccc4n3)CC2C1 (stereo not shown) [Example 19, 2-{5-[(2-Thiophen-2-ylphenyl)carbonyl]hexahydropyrrolo[3,4-c]pyrrol-2(1H)-yl}quinoxaline]",31
13,"Cc1ccc2ccccc2c1C(=O)N1CC2CN(c3cnc4ccccc4n3)CC2C1 (stereo not shown) [Example 20, 2-{5-[(2-Methylnaphthalen-1-yl)carbonyl]hexahydropyrrolo[3,4-c]pyrrol-2(1H)-yl}quinoxaline]",129
14,"O=C(c1ccccc1-c1cccs1)N1CC2CN(c3nccc(-c4ccccc4)n3)CC2C1 (stereo not shown) [Example 22, 2-(4-Phenylpyrimidin-2-yl)-5-[(2-thiophen-2-ylphenyl)carbonyl]octahydro-pyrrolo[3,4-c]pyrrole]",158
15,"Cc1ccc2ccccc2c1C(=O)N1CC2CN(c3nccc(-c4ccccc4)n3)CC2C1 (stereo not shown) [Example 25, 2-[(2-Methylnaphthalen-1-yl)carbonyl]-5-(4-phenylpyrimidin-2-yl)octahydropyrrolo[3,4-c]pyrrole]",99
16,"Cc1ccnc(N2CC3CN(C(=O)c4ccccc4-c4cccs4)CC3C2)n1 (stereo not shown) [Example 32, 2-(4-Methylpyrimidin-2-yl)-5-[(2-thiophen-2-ylphenyl)carbonyl]octahydro-pyrrolo[3,4-c]pyrrole]",32
17,"Cc1cc(C)nc(N2CC3CN(C(=O)c4ccccc4-c4cccs4)CC3C2)n1 (stereo not shown) [Example 43, 2-(4,6-Dimethylpyrimidin-2-yl)-5-[(2-thiophen-2-ylphenyl)carbonyl]octahydro-pyrrolo[3,4-c]pyrrole]",10
18,"Cc1cc(C)nc(N2CC3CN(C(=O)c4ccccc4-c4ccccc4)CC3C2)n1 (stereo not shown) [Example 44, 2-(Biphenyl-2-ylcarbonyl)-5-(4,6-dimethylpyrimidin-2-yl)octahydropyrrolo[3,4-c]pyrrole]",63
19,"COc1ccnc(N2CC3CN(C(=O)c4ccccc4-c4cccs4)CC3C2)n1 (stereo not shown) [Example 45, 2-(4-Methoxypyrimidin-2-yl)-5-[(2-thiophen-2-ylphenyl)carbonyl]octahydro-pyrrolo[3,4-c]pyrrole]",10
20,"Cc1cc(C)nc(N2CC3CN(C(=O)c4c(C)ccc5ccccc45)CC3C2)n1 (stereo not shown) [Example 47, 2-(4,6-Dimethylpyrimidin-2-yl)-5-[(2-methylnaphthalen-1-yl)carbonyl]octahydro-pyrrolo[3,4-c]pyrrole]",32
21,"COc1ccnc(N2CC3CN(C(=O)c4c(C)ccc5ccccc45)CC3C2)n1 (stereo not shown) [Example 49, 2-(4-Methoxypyrimidin-2-yl)-5-[(2-methylnaphthalen-1-yl)carbonyl]octahydro-pyrrolo[3,4-c]pyrrole]",32
22,"Cc1cc(C)nc(N2CC3CN(C(=O)c4ccccc4-c4cccc(F)c4)CC3C2)n1 (stereo not shown) [Example 52, 2-(4,6-Dimethylpyrimidin-2-yl)-5-[(3′-fluorobiphenyl-2-yl)carbonyl]octahydro-pyrrolo[3,4-c]pyrrole]",50
23,"CCOc1ccc2ccccc2c1C(=O)N1CC2CN(c3nccc(OC)n3)CC2C1 (stereo not shown) [Example 56, 2-[(2-Ethoxynaphthalen-1-yl)carbonyl]-5-(4-methoxypyrimidin-2-yl)octahydropyrrolo[3,4-c]pyrrole]",40
24,"O=C(c1ccccc1-c1cccs1)N1CC2CN(c3nccc(-c4cn[nH]c4)n3)CC2C1 (stereo not shown) [Example 62, 2-[4-(1H-Pyrazol-4-yl)pyrimidin-2-yl]-5-[(2-thiophen-2-ylphenyl)carbonyl]octahydro-pyrrolo[3,4-c]pyrrole]",40
25,"Cc1cnc(C)c(N2CC3CN(C(=O)c4ccccc4-c4cccs4)CC3C2)n1 (stereo not shown) [Example 63, 2-(3,6-Dimethylpyrazin-2-yl)-5-[(2-thiophen-2-ylphenyl)carbonyl]octahydro-pyrrolo[3,4-c]pyrrole]",20
